Measurements as given in US20230146455A1, “TREATMENT OF INFLAMMATORY DISEASES WITH PEPTIDES AND PHARMACEUTICAL COMPOSITIONS” (Yuyu Pharma, Inc., priority 2020, published 2023).
“And” between values parts separate entries of the source, which are not always exact repeats. Equal entries are not always repeated. Where a SMILES comes first, the peptide text is derived from it. [ ]: non-standard residue; d: D form. Hyp = O=C(O)[C@@H]1C[C@@H](O)CN1

Key:
[1] = system: IL-10; assay: Example 9 Luminex, LPS hPBMCs: IL-10; type: cell-based, human; conditions: IL-10
Protocol: (§1) Treatment Human PBMCs were pretreated with YY-101, YDE-011 and YDE-043 or reference compound; Xiidra® at various concentration (ranging from 1 nM to 100 uM) for 2 h before stimulation. An equal volume of 0.5% DMSO was used as a vehicle control. Then, the cells were treated with LPS at 5 ug/ml. The supernatants from treated cells were harvested at 24 h and placed in a 96 well for Luminex cytokine & chemokine profiling using a Luminex 200 multiplex assay (Luminex; R&D system, USA).
(§2) The main study arm with triplicate wells per group in a 24-well plate: • 1. Blank • 2. PBMC: 0.5% DMSO • 3. PBMC+LPS (5 ug/ml) • 4. PBMC+YY-101 100 uM • 5. PBMC+YY-101 10 uM • 6. PBMC+YY-101 1 uM • 7. PBMC+YY-101 0.1 uM • 8. PBMC+YY-101 0.01 uM • 9. PBMC+LPS (5 ug/ml)+Xiidra®100 uM • 10. PBMC+LPS (5 ug/ml)+Xiidra® 10 uM • 11. PBMC+LPS (5 ug/ml)+Xiidra® 1 uM • 12. PBMC+LPS (5 ug/ml)+Xiidra®0.1 uM • 13. PBMC+LPS (5 ug/ml)+Xiidra®0.01 uM • 14. PBMC+LPS (5 ug/ml)+Xiidra®0.001 uM • 15. PBMC+LPS (5 ug/ml)+YY-101 100 uM • 16. PBMC+LPS (5 ug/ml)+YY-101 10 uM • 17. PBMC+LPS (5 ug/ml)+YY-101 1 uM • 18. PBMC+LPS (5 ug/ml)+YY-101 0.1 uM • 19. PBMC+LPS (5 ug/ml)+YY-101 0.01 uM • 20. PBMC+LPS (5 ug/ml)+YY-101 0.001 uM • 21. PBMC+LPS (5 ug/ml)+YDE-011 100 uM • 22. PBMC+LPS (5 ug/ml)+YDE-011 10 uM • 23. PBMC+LPS (5 ug/ml)+YDE-011 1 uM • 24. PBMC+LPS (5 ug/ml)+YDE-011 0.1 uM • 25. PBMC+LPS (5 ug/ml)+YDE-011 0.01 uM • 26. PBMC+LPS (5 ug/ml)+YDE-011 0.001 uM • 27. PBMC+LPS (5 ug/ml)+YDE-043 100 uM • 28. PBMC+LPS (5 ug/ml)+YDE-043 10 uM • 29. PBMC+LPS (5 ug/ml)+YDE-043 1 uM • 30. PBMC+LPS (5 ug/ml)+YDE-043 0.1 uM • 31. PBMC+LPS (5 ug/ml)+YDE-043 0.01 uM • 32. PBMC+LPS (5 ug/ml)+YDE-043 0.001 uM
(§3) Multiplex assay was used to measure 30 cytokines and chemokines. The 1:2, 1:10 and 1:200 diluted cell supernatant and serial dilution of the standard were dispensed into a 96 well plate at 50 ul/well. Then, the pre-mixed cocktail of antibody-coated magnetic beads was dispensed at 50 ul/well and incubated at room temperature for 2 h in a horizontal orbital microplate shaker at 800±500 rpm. The beads were washed using a magnetic device to prevent loss. The biotin-antibody was dispensed in 50 ul of each well and incubated at room temperature for 1 h in a shaker at 800±500 rpm. After washing, streptavidin-PE was added at 50 ul/well and incubated at room temperature for 30 min in a shaker under the same conditions. Finally, after washing, wash buffer (100 ul/well) was added to the plate and incubated in a shaker for 2 min. The Luminex™ 200 setting were set according to the manufacturer's protocol. The data was calculated with a standard five-parameter logistic nonlinear regression analysis of the data (xPonent software 4.2, USA). The levels of cytokine/chemokine are normalized to the live cell counts (1×10^5 cells/mL) and presented as concentrations per mL (pg/mL or ng/mL).

[2] = system: TIMP-1; assay: Example 9 Luminex, LPS hPBMCs: TIMP-1; type: cell-based, human; conditions: PBMC + LPS(5 ug/ml)
Protocol: as §1, §2, §3

[3] = PBMC + LPS(5 ug/ml) + test article 0.001 uM, Mean
[4] = PBMC + LPS(5 ug/ml) + test article 0.001 uM, single replicates
[5] = PBMC + LPS(5 ug/ml) + test article 0.01 uM, Mean
[6] = PBMC + LPS(5 ug/ml) + test article 0.01 uM, single replicates
[7] = PBMC + LPS(5 ug/ml) + test article 0.1 uM, Mean
[8] = PBMC + LPS(5 ug/ml) + test article 0.1 uM, single replicates
[9] = PBMC + LPS(5 ug/ml) + test article 1 uM, Mean
[10] = PBMC + LPS(5 ug/ml) + test article 1 uM, single replicates
[11] = PBMC + LPS(5 ug/ml) + test article 10 uM, Mean
[12] = PBMC + LPS(5 ug/ml) + test article 10 uM, single replicates
[13] = PBMC + LPS(5 ug/ml) + test article 100 uM, Mean
[14] = PBMC + LPS(5 ug/ml) + test article 100 uM, single replicates
[15] = test article 0.001 uM, single replicates
[16] = test article 0.01 uM, single replicates
[17] = test article 0.1 uM, single replicates
[18] = test article 1 uM, single replicates
[19] = test article 10 uM, single replicates
[20] = test article 100 uM, single replicates

In the case of CC(C)C[C@H](NC(=O)CNC(=O)[C@H](CC(C)C)NC(=O)[C@H](CCC(N)=O)NC(=O)CNC(=O)[C@@H]1C[C@@H](O)CN1)C(=O)N[C@@H](C)C(=O)NCC(=O)N1CCC[C@H]1C(=O)N[C@@H](CCCCN)C(=O)O [YDE-011] (H-[Hyp]GQLGLAGPK-OH), the “Concentration” value [1, 3] was 303.8 pg/mL, the “conc/live cell (pg/10^5)” value [1, 3] was 57.2 pg/10^5 and the “Concentration” value [1, 4] was 291.0 pg/mL and 314.2 pg/mL and 306.3 pg/mL. For the same compound, the “conc/live cell (pg/10^5)” value [1, 4] was 64.7 pg/10^5 and 54.2 pg/10^5 and 52.8 pg/10^5, the “Concentration” value [1, 5] was 318.0 pg/mL and the “conc/live cell (pg/10^5)” value [1, 5] was 54.4 pg/10^5. For the same compound, the “Concentration” value [1, 6] was 333.6 pg/mL and 325.0 pg/mL and 295.4 pg/mL, the “conc/live cell (pg/10^5)” value [1, 6] was 52.9 pg/10^5 and 52.4 pg/10^5 and 57.9 pg/10^5 and the “Concentration” value [1, 7] was 308.9 pg/mL. The “conc/live cell (pg/10^5)” value [1, 7] was 54.4 pg/10^5, the “Concentration” value [1, 8] was 299.0 pg/mL and 317.8 pg/mL and 309.9 pg/mL and the “conc/live cell (pg/10^5)” value [1, 8] was 45.3 pg/10^5 and 63.6 pg/10^5 and 54.4 pg/10^5. For the same compound, the “Concentration” value [1, 9] was 314.7 pg/mL, the “conc/live cell (pg/10^5)” value [1, 9] was 62.8 pg/10^5 and the “Concentration” value [1, 10] was 314.2 pg/mL and 319.3 pg/mL and 310.6 pg/mL. The “conc/live cell (pg/10^5)” value [1, 10] was 57.1 pg/10^5 and 66.5 pg/10^5 and 64.7 pg/10^5, the “Concentration” value [1, 11] was 300.7 pg/mL and the “conc/live cell (pg/10^5)” value [1, 11] was 57.3 pg/10^5. For the same compound, the “Concentration” value [1, 12] was 299.0 pg/mL and 295.4 pg/mL and 307.7 pg/mL, the “conc/live cell (pg/10^5)” value [1, 12] was 55.4 pg/10^5 and 50.9 pg/10^5 and 65.5 pg/10^5 and the “Concentration” value [1, 13] was 111.4 pg/mL. For the same compound, the “conc/live cell (pg/10^5)” value [1, 13] was 18.4 pg/10^5, the “Concentration” value [1, 14] was 99.4 pg/mL and 113.9 pg/mL and 121.1 pg/mL and the “conc/live cell (pg/10^5)” value [1, 14] was 16.3 pg/10^5 and 18.7 pg/10^5 and 20.2 pg/10^5. The “TIMP-1 Concentration” value ([2]; test article 0.001 uM, Mean) was 1792.7 pg/mL, the “TIMP-1 MFI” value ([2]; test article 0.001 uM, Mean) was 946.7 and the TIMP-1 conc/live cell ([2]; test article 0.001 uM, Mean) was 339.5 pg/10^5. For the same compound, the “TIMP-1 Concentration” value [2, 15] was 1831.6 pg/mL and 1659.9 pg/mL and 1886.6 pg/mL, the “TIMP-1 MFI” value [2, 15] was 974.0 and 852.5 and 1013.5 and the TIMP-1 conc/live cell [2, 15] was 407.0 pg/10^5 and 286.2 pg/10^5 and 325.3 pg/10^5. The “TIMP-1 Concentration” value ([2]; test article 0.01 uM, Mean) was 1879.9 pg/mL, the “TIMP-1 MFI” value ([2]; test article 0.01 uM, Mean) was 1009.2 and the TIMP-1 conc/live cell ([2]; test article 0.01 uM, Mean) was 325.5 pg/10^5. The “TIMP-1 Concentration” value [2, 16] was 1811.3 pg/mL and 2050.0 pg/mL and 1778.3 pg/mL, the “TIMP-1 MFI” value [2, 16] was 959.5 and 1132.0 and 936.0 and the TIMP-1 conc/live cell [2, 16] was 292.1 pg/10^5 and 402.0 pg/10^5 and 282.3 pg/10^5. The “TIMP-1 Concentration” value ([2]; test article 0.1 uM, Mean) was 1831.1 pg/mL, the “TIMP-1 MFI” value ([2]; test article 0.1 uM, Mean) was 974.2 and the TIMP-1 conc/live cell ([2]; test article 0.1 uM, Mean) was 320.0 pg/10^5. For the same compound, the “TIMP-1 Concentration” value [2, 17] was 1879.7 pg/mL and 1677.8 pg/mL and 1935.9 pg/mL, the “TIMP-1 MFI” value [2, 17] was 1008.5 and 865.0 and 1049.0 and the TIMP-1 conc/live cell [2, 17] was 284.8 pg/10^5 and 335.6 pg/10^5 and 339.6 pg/10^5. The “TIMP-1 Concentration” value ([2]; test article 1 uM, Mean) was 1791.4 pg/mL, the “TIMP-1 MFI” value ([2]; test article 1 uM, Mean) was 945.5 and the TIMP-1 conc/live cell ([2]; test article 1 uM, Mean) was 356.7 pg/10^5. The “TIMP-1 Concentration” value [2, 18] was 1869.9 pg/mL and 1750.8 pg/mL and 1753.6 pg/mL, the “TIMP-1 MFI” value [2, 18] was 1001.5 and 916.5 and 918.5 and the TIMP-1 conc/live cell [2, 18] was 340.0 pg/10^5 and 364.7 pg/10^5 and 365.3 pg/10^5. The “TIMP-1 Concentration” value ([2]; test article 10 uM, Mean) was 1768.2 pg/mL, the “TIMP-1 MFI” value ([2]; test article 10 uM, Mean) was 929.0 and the TIMP-1 conc/live cell ([2]; test article 10 uM, Mean) was 335.3 pg/10^5. The “TIMP-1 Concentration” value [2, 19] was 1820.4 pg/mL and 1794.4 pg/mL and 1689.9 pg/mL, the “TIMP-1 MFI” value [2, 19] was 966.0 and 947.5 and 873.5 and the TIMP-1 conc/live cell [2, 19] was 337.1 pg/10^5 and 309.4 pg/10^5 and 359.5 pg/10^5. For the same compound, the “TIMP-1 Concentration” value ([2]; test article 100 uM, Mean) was 2184.4 pg/mL, the “TIMP-1 MFI” value ([2]; test article 100 uM, Mean) was 1231.0 and the TIMP-1 conc/live cell ([2]; test article 100 uM, Mean) was 360.0 pg/10^5. For the same compound, the “TIMP-1 Concentration” value [2, 20] was 2326.8 pg/mL and 2121.7 pg/mL and 2104.6 pg/mL, the “TIMP-1 MFI” value [2, 20] was 1336.5 and 1184.5 and 1172.0 and the TIMP-1 conc/live cell [2, 20] was 381.4 pg/10^5 and 347.8 pg/10^5 and 350.8 pg/10^5.
